In ChEMBL document CHEMBL1154382, “Preliminary SAR analysis of novel antiproliferative N(6),5'-bis-ureidoadenosine derivatives” (2009):
The source made the active and inactive calls.

Experiments:
Format in all cases: functional
CCRF-CEM = assay: Antiproliferative activity against human CCRF-CEM cells at 10 uM assessed as cell growth inhibition relative to control
HL-60(TB) = assay: Antiproliferative activity against human HL-60(TB) cells at 10 uM assessed as cell growth inhibition relative to control
K562 = assay: Antiproliferative activity against human K562 cells at 10 uM assessed as cell growth inhibition relative to control
MOLT-4 = assay: Antiproliferative activity against human MOLT4 cells at 10 uM assessed as cell growth inhibition relative to control
RPMI8266 = assay: Antiproliferative activity against human […] cells at 10 uM assessed as cell growth inhibition relative to control
A549 = assay: Antiproliferative activity against human A549 cells at 10 uM assessed as cell growth inhibition relative to control
EKVX = assay: Antiproliferative activity against human EKVX cells at 10 uM assessed as cell growth inhibition relative to control
PC-3 = assay: Antiproliferative activity against human PC3 cells at 10 uM assessed as cell growth inhibition relative to control
HOP-62 = assay: Antiproliferative activity against human HOP62 cells at 10 uM assessed as cell growth inhibition relative to control
HOP-92 = assay: Antiproliferative activity against human HOP92 cells at 10 uM assessed as cell growth inhibition relative to control
NCI-H226 = assay: Antiproliferative activity against human NCI-H226 cells at 10 uM assessed as cell growth inhibition relative to control
NCI-H23 = assay: Antiproliferative activity against human NCI-H23 cells at 10 uM assessed as cell growth inhibition relative to control
NCI-H322M = assay: Antiproliferative activity against human NCI-H322M cells at 10 uM assessed as cell growth inhibition relative to control
NCI-H460 = assay: Antiproliferative activity against human NCI-H460 cells at 10 uM assessed as cell growth inhibition relative to control
NCI-H522 = assay: Antiproliferative activity against human NCI-H522 cells at 10 uM assessed as cell growth inhibition relative to control
COLO 205 = assay: Antiproliferative activity against human COLO205 cells at 10 uM assessed as cell growth inhibition relative to control
HCC 2998 = assay: Antiproliferative activity against human HCC2998 cells at 10 uM assessed as cell growth inhibition relative to control
HCT-116 = assay: Antiproliferative activity against human HCT116 cells at 10 uM assessed as cell growth inhibition relative to control
HCT-15 = assay: Antiproliferative activity against human HCT15 cells at 10 uM assessed as cell growth inhibition relative to control
HT-29 = assay: Antiproliferative activity against human HT-29 cells at 10 uM assessed as cell growth inhibition relative to control
KM12 = assay: Antiproliferative activity against human KM12 cells at 10 uM assessed as cell growth inhibition relative to control
SW-620 = assay: Antiproliferative activity against human SW620 cells at 10 uM assessed as cell growth inhibition relative to control
LOX IMVI = assay: Antiproliferative activity against human LOXIMVI cells at 10 uM assessed as cell growth inhibition relative to control
Malme-3M = assay: Antiproliferative activity against human MALME-3M cells at 10 uM assessed as cell growth inhibition relative to control
M14 = assay: Antiproliferative activity against human M14 cells at 10 uM assessed as cell growth inhibition relative to control
SK-MEL-2 = assay: Antiproliferative activity against human SK-MEL-2 cells at 10 uM assessed as cell growth inhibition relative to control
SK-MEL-28 = assay: Antiproliferative activity against human SK-MEL-28 cells at 10 uM assessed as cell growth inhibition relative to control
SK-MEL-5 = assay: Antiproliferative activity against human SK-MEL-5 cells at 10 uM assessed as cell growth inhibition relative to control
UACC-257 = assay: Antiproliferative activity against human UACC257 cells at 10 uM assessed as cell growth inhibition relative to control
UACC-62 = assay: Antiproliferative activity against human UACC62 cells at 10 uM assessed as cell growth inhibition relative to control
SF-268 = assay: Antiproliferative activity against human SF268 cells at 10 uM assessed as cell growth inhibition relative to control
SF-295 = assay: Antiproliferative activity against human SF295 cells at 10 uM assessed as cell growth inhibition relative to control
SF-539 = assay: Antiproliferative activity against human SF539 cells at 10 uM assessed as cell growth inhibition relative to control
SNB-19 = assay: Antiproliferative activity against human SNB19 cells at 10 uM assessed as cell growth inhibition relative to control
SNB-75 = assay: Antiproliferative activity against human SNB75 cells at 10 uM assessed as cell growth inhibition relative to control
U-251 = assay: Antiproliferative activity against human U251 cells at 10 uM assessed as cell growth inhibition relative to control
IGROV-1 = assay: Antiproliferative activity against human IGROV1 cells at 10 uM assessed as cell growth inhibition relative to control
OVCAR-3 = assay: Antiproliferative activity against human OVCAR-3 cells at 10 uM assessed as cell growth inhibition relative to control
OVCAR-4 = assay: Antiproliferative activity against human OVCAR4 cells at 10 uM assessed as cell growth inhibition relative to control
OVCAR-5 = assay: Antiproliferative activity against human OVCAR5 cells at 10 uM assessed as cell growth inhibition relative to control
OVCAR-8 = assay: Antiproliferative activity against human OVCAR8 cells at 10 uM assessed as cell growth inhibition relative to control
SK-OV-3 = assay: Antiproliferative activity against human SKOV3 cells at 10 uM assessed as cell growth inhibition relative to control
786-0 = assay: Antiproliferative activity against human 786-0 cells at 10 uM assessed as cell growth inhibition relative to control
A498 = assay: Antiproliferative activity against human A498 cells at 10 uM assessed as cell growth inhibition relative to control
ACHN = assay: Antiproliferative activity against human ACHN cells at 10 uM assessed as cell growth inhibition relative to control
CAKI-1 = assay: Antiproliferative activity against human Caki1 cells at 10 uM assessed as cell growth inhibition relative to control
RXF 393 = assay: Antiproliferative activity against human RXF393 cells at 10 uM assessed as cell growth inhibition relative to control
SN12C = assay: Antiproliferative activity against human SN12C cells at 10 uM assessed as cell growth inhibition relative to control
TK-10 = assay: Antiproliferative activity against human TK10 cells at 10 uM assessed as cell growth inhibition relative to control
UO-31 = assay: Antiproliferative activity against human UO31 cells at 10 uM assessed as cell growth inhibition relative to control
BT-549 = assay: Antiproliferative activity against human BT549 cells at 10 uM assessed as cell growth inhibition relative to control
Hs-578T = assay: Antiproliferative activity against human Hs 578T cells at 10 uM assessed as cell growth inhibition relative to control
MCF7 = assay: Antiproliferative activity against human MCF7 cells at 10 uM assessed as cell growth inhibition relative to control
MDA-MB-231 = assay: Antiproliferative activity against human MDA-MB-231 cells at 10 uM assessed as cell growth inhibition relative to control
MDA-MB-468 = assay: Antiproliferative activity against human MDA-MB-468 cells at 10 uM assessed as cell growth inhibition relative to control
T47D = assay: Antiproliferative activity against human T47D cells at 10 uM assessed as cell growth inhibition relative to control
DU-145 = assay: Antiproliferative activity against human DU145 cells at 10 uM assessed as cell growth inhibition relative to control

Measured: growth inhibition (GI)

CNC(=O)NC[C@H]1O[C@@H](n2cnc3c(NC(=O)Nc4ccccc4)ncnc32)[C@H](O)[C@@H]1O
inactive: CCRF-CEM | HL-60(TB) | K562 | MOLT-4 | RPMI8266 | A549 | EKVX | PC-3 | HOP-62 | HOP-92 | NCI-H226 | NCI-H23 | NCI-H322M | NCI-H460 | NCI-H522 | COLO 205 | HCC 2998 | HCT-116 | HCT-15 | HT-29 | KM12 | SW-620 | LOX IMVI | Malme-3M | M14 | SK-MEL-2 | SK-MEL-28 | SK-MEL-5 | UACC-257 | UACC-62 | SF-268 | SF-295 | SF-539 | SNB-19 | SNB-75 | U-251 | IGROV-1 | OVCAR-3 | OVCAR-4 | OVCAR-5 | OVCAR-8 | SK-OV-3 | 786-0 | A498 | ACHN | CAKI-1 | RXF 393 | SN12C | TK-10 | UO-31 | BT-549 | Hs-578T | MCF7 | MDA-MB-231 | MDA-MB-468 | T47D | DU-145

CNC(=O)NC[C@H]1O[C@@H](n2cnc3c(NC(=O)Nc4ccccc4)ncnc32)[C@@H]2OC(=O)C[C@@H]21
inactive: CCRF-CEM | HL-60(TB) | K562 | MOLT-4 | RPMI8266 | A549 | EKVX | PC-3 | HOP-62 | HOP-92 | NCI-H226 | NCI-H23 | NCI-H322M | NCI-H460 | NCI-H522 | COLO 205 | HCC 2998 | HCT-116 | HCT-15 | HT-29 | KM12 | SW-620 | LOX IMVI | Malme-3M | M14 | SK-MEL-2 | SK-MEL-28 | SK-MEL-5 | UACC-257 | UACC-62 | SF-268 | SF-295 | SF-539 | SNB-19 | SNB-75 | U-251 | IGROV-1 | OVCAR-3 | OVCAR-4 | OVCAR-5 | OVCAR-8 | SK-OV-3 | 786-0 | A498 | ACHN | CAKI-1 | RXF 393 | SN12C | TK-10 | UO-31 | BT-549 | Hs-578T | MCF7 | MDA-MB-231 | MDA-MB-468 | T47D | DU-145
